Test results published in patent US5466716A, “Liposomal trimethylsphingosine” (The Biomembrane Institute, priority 1994, dated 1995).
Entries after “also recorded” stand apart in the source; their conditions may differ. Where two headings read alike, the source gives them in different places.

Assays:
[1] = system: neutrophils; test: neutrophil transmigration through HUVEC monolayer; type: cell-based, human
Method: A characteristic of neutrophils is the ability to adhere to activiated EC's and to migrate through the EC monolayer into the vascular or extravascular matrix. The effect of TMS on neutrophil interactions with EC's and their subsequent trans-endothelial migration thereof can be monitored in vitro using human umbilical endothelial cells (HUVEC's) (Luscinskas et al., J. Imm., 146, 1617, 1991). Neutrophils are added to a HUVEC monolayer and neutrophil-HUVEC interactions are assessed microscopically following fixation, embedding and staining of monolayer sections.
Cross-sections (2 μm) of the collagen bed with HUVEC's and neutrophils
were observed using a Zeiss light microscope with KPL W10 ahd Ph2 Neoflua
16 lenses. The number of cells transmigrated were counted for each view.
HUVEC's and culture media were purchased from Cell Systems (Kirkland, Wash.). The cells were maintained and cultured as described in Luscinskas et al., supra, with some modifications. Briefly, HUVEC's were maintained in 10 ml tissue culture flasks on a collagen type I bed obtained from rat tail (Upstate Biotechnology Inc, Lake Placid, N.Y.) with CS-complete medium, CS-growth factor and CS-AF-1 (Cell Systems). Cells became confluent within 2 to 4 days when incubated in 5% CO2 at 37° C.
For the transmigration assay, thick gels were formed in 24-well tissue culture plates. Preparation of the gel solution was carried out at 4° C. Eight parts of collagen solution (Vitrogen 100, from bovine tendon which contained less than 5 ng/ml endotoxin; Celtrix Labs, Palo Alto, Calif.), one part of 10×RPMI and one part of alkaline solution (2.2 g NaHCO3 in 100 ml of 0.05N NaOH and 200 mM HEPES) were mixed gently and distributed at 0.7 ml/well. The solution was left for 4 hr at 37° C. to eliminate air bubbles, then allowed to gel in a 37° C. oven for 3 hr. The wells were washed with 1.0 ml of CS-complete medium with attachment factors at least 4 times and every 3 to 6 hr during further incubation at 37° C. in 5% CO2.
HUVEC's at a passage level of less than 3 were detached from 10 ml tissue culture flasks with 3 ml of Trypsin-EDTA at 37° C. for 30 to 60 sec. Immediately, 3 ml of M199 with 20% heat-inactivated FCS was added. Cells were collected by centrifugation. The pellet was resuspended in 10 ml of CS-complete medium with attachment factors. Homogeneous cell suspensions were plated at 0.7 ml to each well and the plates were incubated for 3 hr at 37° C. The supernatant, which contains dead cells, was aspirated carefully and fresh complete medium with attachment factors was added.
The HUVEC monolayer in 24-well tissue culture plates were washed with M199 without FCS, then incubated with 1 ml/well of IL-1β (Boehringer Mannheim Biochemical Products, Indianapolis, Ind.) dissolved in M199 with 1% heat-inactivated FCS (HIFCS) at 10 U/ml. The plates were incubated at 37° C., 5% CO2 for 4 hr then washed gently with 1 ml of M199. The purified neutrophil suspension (1.5×10^6 cells/ml) in M199 containing 1% HIFCS was pre-incubated with TMS, or other effectors, for 10 min at 37° C. After aspirating the media in the well, 0.5 ml of the neutrophil suspension were added onto the HUVEC monolayer. The tissue culture plate was incubated for 90 min at 37° C.
The culture was terminated by gently aspirating the cell suspension, adding 1 ml of 10% formaldehyde in PBS and stored at 4° C. overnight for fixation. The edge of the collagen bed was cut with a small spatula along the wall 2 hr before removal from the well. The collagen bed, which has HUVEC's on the surface and transmigrated neutrophils within was embedded in paraffin, sectioned and followed by staining with hematoxylin-eosin for microscopic examination.

[2] = system: GMP-140; test: GMP-140 expression on platelets (flow cytometry, mAb AC1.2); type: cell-based, human
Method: FIGS. 11A and 11B depict results of representative experiments assessing the percentage of platelets capable of binding an anti-GMP-140 antibody following exposure to various agents. The percentage binding activity was determined in a flow cytometer. SPN is sphingosine; H-7 is 1-(5-isoquinolinylsulfonyl)-2-methylpiperazine; Cal is calphostin-C; TMS is trimethylsphingosine; and DMS is dimethylsphingosine.
GMP-140 expression was determined by (i) flow cytometry with mAb AC1.2, which is directed to GMP-140 and obtained from Dr. Furie (Tufts Univ. Sch. Med., Boston, Mass.) and (ii) adhesion of HL60 cells on platelet-coated solid phase.
A suspension of platelets (1×10^8 /ml) in Tyrode's buffer was preincubated with inhibitor at pH 7.2, 37° C., for 5 minutes, then supplemented with activator, either thrombin (final concentration 1 U/ml) or phorbol 12-myristate 13-acetate (PMA (final concentration 10^-7 M), and the mixture was incubated at 37° C. for 10 minutes. Platelets were fixed with an equal volume of 2% (w/v) paraformaldehyde in PBS and washed 2 times with PBS containing 1% (w/v) BSA.
The paraformaldehyde-fixed platelets were incubated with 50 μl of mAb AC1.2 (2.5 μg/ml) at room temperature for 30 minutes. Platelets were washed 2 times with PBS containing 1% (w/v) BSA, supplemented with 50 μl of fluorescein isothiocyanate-labeled goat anti-mouse Ig (purchased from Tago Co., Burlingame, Calif.), incubated at room temperature for 30 minutes and again washed 2 times with PBS containing 1% (w/v) BSA. As a negative control, paraformaldehyde-fixed platelets were incubated with mouse IgG instead of mAb AC1.2 and treated as described above.
The platelets were analyzed in an Epics flow cytometer (Coulter Corp.) with suitable gating. To calculate the inhibitory effect of various reagents, the mean fluorescence intensity of resting platelets (obtained on incubation of platelets without activator) was subtracted from the value for the activated platelet sample.

With `CCCCCCCCCCCCC/C=C/[C@@H](O)[C@H](CO)[N+](C)(C)C` [TMS, N,N,N-trimethylsphingosine] the “inhibition of neutrophil migration” value ([1]; 8 μM pre-treatment) was “inhibited strongly”, the “number of cells migrating through the EC monolayer” value ([1]; 15 μM) was “greatly reduces the number of cells migrating” and the “inhibition of neutrophil migration” value ([1]; 25 μM pre-treatment) was “completely inhibited”. The “neutrophil migration (transmigration)” value ([1]; Example 10) was “affected neutrophil migration”, the activity at 4 µM ([1]; Homo sapiens, Neutrophil, 1.5 h, Table II, 4 μM, control 100, read-out: neutrophil transmigration (number of cells transmigrated)) was 96 ± 18% and the activity at 8 µM ([1]; Homo sapiens, Neutrophil, 1.5 h, Table II, 8 μM, control 100, read-out: neutrophil transmigration (number of cells transmigrated)) was 66 ± 28%. For the same molecule, the activity at 15 µM ([1]; Homo sapiens, Neutrophil, 1.5 h, Table II, 15 μM, control 100, read-out: neutrophil transmigration (number of cells transmigrated)) was 41 ± 8.7%, the activity at 25 µM ([1]; Homo sapiens, Neutrophil, 1.5 h, Table II, 25 μM, control 100, read-out: neutrophil transmigration (number of cells transmigrated)) was 6.8 ± 4.1% and the activity at 45 µM ([1]; Homo sapiens, Neutrophil, 1.5 h, Table II, 45 μM, control 100, read-out: neutrophil transmigration (number of cells transmigrated)) was 1.2 ± 1.2%. The activity at 15 µM ([1]; Homo sapiens, Neutrophil, 1.5 h, Table III, 15 μM, control 100, read-out: Number of Cells/View) was 39 ± 17%, the “inhibition of GMP-140 expression” value ([2]; PMA-induced, 10-20 μM) was “strongly inhibited GMP-140 expression” and the GMP-140 expression ([2]; platelets preincubated with TMS) was “inhibits GMP-140 expression; also recorded: down-regulated or blocked”. For the same molecule, the “inhibition of GMP-140 expression” value ([2]; thrombin-induced, 10-20 μM) was “strongly inhibited GMP-140 expression”.

With Calphostin C the “Number of Cells/View” value ([1]; Table III, 5 μM, control 100, 90 min) was 19 ± 8.9 and the “inhibition of GMP-140 expression” value ([2]; thrombin-induced, 10-20 μM) was “weak inhibition”.

With `CCCCCCCCCCCCC/C=C/[C@@H](O)[C@@H](N)CO` [SPN, sphingosine] the activity at 15 µM ([1]; Homo sapiens, Neutrophil, 1.5 h, read-out: Number of Cells/View) was 36 ± 12%, the “inhibition of GMP-140 expression” value ([2]; PMA-induced, FIG. 11B) was “Neither SPN nor H-7 showed inhibition” and the “inhibition of GMP-140 expression” value ([2]; thrombin-induced, FIG. 11A) was “no inhibition”.

With `CCCCCCCCCCCCC/C=C/[C@@H](O)[C@H](CO)N(C)C` [DMS, (4E)-N,N-dimethyl-D-erythro-sphingosine] the “inhibition of GMP-140 expression” value ([2]; PMA-induced, 10-20 μM) was “strongly inhibited GMP-140 expression” and the “inhibition of GMP-140 expression” value ([2]; thrombin-induced, FIG. 11A) was “strongly inhibited thrombin-induced GMP-140 expression”.
